Columns and labels:
[1] = test system: Rattus norvegicus; experiment: Antihyperglycemic activity in sucrose-loaded Rattus norvegicus Wistar albino (rat) diabetic model assessed as glucose reduction at 30 mg/kg measured at 24 hr relative to control; assay type: functional; design: scale not given: the % may be the effect or the level left
[2] = test system: Rattus norvegicus; experiment: Antihyperglycemic activity in sucrose-loaded Rattus norvegicus Wistar albino (rat) diabetic model assessed as glucose reduction at 30 mg/kg measured at 5 hr relative to control; assay type: functional; design: scale not given: the % may be the effect or the level left
[3] = biological target: T1, Tyrosine-protein phosphatase non-receptor type 1 (Rattus norvegicus) (UniProt P20417); experiment: Ratio of rosiglitazone activity to compound activity for inhibition of PTP1B in Rattus norvegicus (rat) L6 cells; assay type: cell-based
T1 sequence (whole entry): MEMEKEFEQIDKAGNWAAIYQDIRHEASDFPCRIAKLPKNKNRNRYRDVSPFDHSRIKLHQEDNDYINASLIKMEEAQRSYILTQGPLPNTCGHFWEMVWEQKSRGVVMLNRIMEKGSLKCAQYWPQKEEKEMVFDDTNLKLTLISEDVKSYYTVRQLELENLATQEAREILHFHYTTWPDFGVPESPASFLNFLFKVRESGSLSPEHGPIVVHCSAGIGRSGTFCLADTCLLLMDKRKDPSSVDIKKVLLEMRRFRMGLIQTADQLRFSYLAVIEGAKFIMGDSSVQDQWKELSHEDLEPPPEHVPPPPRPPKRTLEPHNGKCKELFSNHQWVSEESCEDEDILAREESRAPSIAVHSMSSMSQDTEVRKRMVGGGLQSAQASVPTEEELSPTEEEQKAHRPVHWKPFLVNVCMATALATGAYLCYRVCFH

[4] = test system: Rattus norvegicus; experiment: Antihyperglycemic activity in sucrose-challenged streptozotocin-induced Rattus norvegicus Wistar albino (rat) diabetic model assessed as glucose reduction at 30 mg/kg measured at 5 hr relative to control; assay type: functional; design: scale not given: the % may be the effect or the level left
[5] = biological target: T1, Tyrosine-protein phosphatase non-receptor type 1 (Rattus norvegicus); experiment: Inhibition of PTP1B in Rattus norvegicus (rat) L6 cells assessed as cellular 2-deoxy-D-[U-14C]glucose uptake at 10 to 50 uM after 18 hr relative to control; assay type: cell-based
[6] = biological target: T1, Tyrosine-protein phosphatase non-receptor type 1 (Rattus norvegicus); experiment: Ratio of metformin activity to compound activity for inhibition of PTP1B in Rattus norvegicus (rat) L6 cells; assay type: cell-based
[7] = biological target: T2, Tyrosine-protein phosphatase non-receptor type 1 (Homo sapiens) (UniProt P18031); experiment: Inhibition of Homo sapiens (human) recombinant PTP1B at 10 uM relative to control
T2 sequence (whole entry): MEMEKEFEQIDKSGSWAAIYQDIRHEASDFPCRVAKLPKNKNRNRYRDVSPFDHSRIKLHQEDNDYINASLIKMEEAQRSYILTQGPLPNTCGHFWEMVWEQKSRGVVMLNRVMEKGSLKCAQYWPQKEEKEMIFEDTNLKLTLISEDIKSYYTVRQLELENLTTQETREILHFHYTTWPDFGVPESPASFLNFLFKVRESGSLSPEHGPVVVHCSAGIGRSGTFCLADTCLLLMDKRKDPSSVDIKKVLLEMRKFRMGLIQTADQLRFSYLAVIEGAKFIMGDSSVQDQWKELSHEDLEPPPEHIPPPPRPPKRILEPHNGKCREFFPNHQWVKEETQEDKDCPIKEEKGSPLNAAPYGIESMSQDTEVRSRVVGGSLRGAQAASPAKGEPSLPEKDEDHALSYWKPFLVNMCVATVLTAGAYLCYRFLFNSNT

[8] = test system: Rattus norvegicus; experiment: Antihyperglycemic activity in sucrose-challenged streptozotocin-induced Rattus norvegicus Wistar albino (rat) diabetic model assessed as glucose reduction at 30 mg/kg measured at 24 hr relative to control; assay type: functional; design: scale not given: the % may be the effect or the level left
[9] = biological target: T1, Tyrosine-protein phosphatase non-receptor type 1 (Rattus norvegicus); experiment: Inhibition of PTP1B in Rattus norvegicus (rat) L6 cells assessed as cellular 2-deoxy-D-[U-14C]glucose uptake at 500 uM after 18 hr relative to control; assay type: cell-based

| Ratio [3] | inhibition [5] [%] | Ratio [6] | inhibition [7] [%] | inhibition [9] [%] | Compound | Activity [1] [%] | Activity [2] [%] | Activity [4] [%] | Activity [8] [%] |
| --- | --- | --- | --- | --- | --- | --- | --- | --- | --- |
| 10 | 18.5 | 50 | 24.2 | – | O=C(CSc1nc2ccccc2[nH]1)Nc1cccc(C(=O)O)c1 | 33 | 32 | 48 | 45 |
| – | – | – | 20 | – | Cc1ccc(C(=O)Nc2ccc(S(=O)(=O)O)c3cc(S(=O)(=O)O)cc(S(=O)(=O)O)c23)cc1NC(=O)c1cccc(NC(=O)Nc2cccc(C(=O)Nc3cc(C(=O)Nc4ccc(S(=O)(=O)O)c5cc(S(=O)(=O)O)cc(S(=O)(=O)O)c45)ccc3C)c2)c1 | – | – | – | – |
| – | – | – | – | 30.2 | CN(C)C(=N)NC(=N)N [METFORMIN] | 17 | 13 | 18 | 17 |
| – | – | – | – | – | CN(CCOc1ccc(CC2SC(=O)NC2=O)cc1)c1ccccn1 (stereo not drawn) [ROSIGLITAZONE] | 26 | 23 | 21 | 24 |

— ChEMBL document CHEMBL3046186, “Identification of ZINC02765569: a potent inhibitor of PTP1B by vHTS” (2013)
